{
  "source": "patent US20150105252A1",
  "about": "“SUBSTITUTED PYRAZOLES AS HERBICIDES” (E I DU PONT DE NEMOURS AND COMPANY, priority 2013, published 2015)",
  "key": {"barnyardgrass": {"system": "barnyardgrass", "experiment": "Test C preemergence", "assay_type": "in vivo, Echinochloa crus-galli", "settings": "preemergence", "in_short": "(§1)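 Pre- and postemergence greenhouse screen; vehicle was a non-phytotoxic solvent mix with surfactant. Preemergence: treatment applied right after sowing into loam and sand. Postemergence: treated at 1–4 leaves. Visual rating at 13–15 days, 100 = complete control.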"}, "morningglory [1]": {"system": "morningglory", "experiment": "Test A preemergence", "assay_type": "in vivo, Ipomoea spp.", "settings": "preemergence", "in_short": "(§2)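 Greenhouse test in loam soil/sand blend; compounds formulated in non-phytotoxic solvent with surfactant, applied as preemergence directed soil spray or postemergence to plants 2–10 cm tall at one- to two-leaf stage. Injury rated visually versus untreated controls after approximately 10 days on a 0 (no effect) to 100 (complete control) scale.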"}, "blackgrass [2]": {"system": "blackgrass", "experiment": "Test C preemergence", "assay_type": "in vivo, Alopecurus myosuroides", "settings": "preemergence", "in_short": "as §1"}, "ryegrass, Italian": {"system": "ryegrass, Italian", "experiment": "Test C preemergence", "assay_type": "in vivo, Lolium multiflorum", "settings": "preemergence", "in_short": "as §1"}, "morningglory [3]": {"system": "morningglory", "experiment": "Test C preemergence", "assay_type": "in vivo, Ipomoea coccinea", "settings": "preemergence", "in_short": "as §1"}, "blackgrass [4]": {"system": "blackgrass", "experiment": "Test C postemergence", "assay_type": "in vivo, Alopecurus myosuroides", "in_short": "as §1"}, "morningglory [5]": {"system": "morningglory", "experiment": "Test C postemergence", "assay_type": "in vivo, Ipomoea coccinea", "in_short": "as §1"}, "corn": {"system": "corn", "experiment": "Test A preemergence", "assay_type": "in vivo, Zea mays", "settings": "preemergence", "in_short": "as §2"}, "johnsongrass": {"system": "johnsongrass", "experiment": "Test C preemergence", "assay_type": "in vivo, Sorghum halepense", "settings": "preemergence", "in_short": "as §1"}, "wheat": {"system": "wheat", "experiment": "Test A preemergence", "assay_type": "in vivo, Triticum aestivum", "settings": "preemergence", "in_short": "as §2"}, "pigweed [6]": {"system": "pigweed", "experiment": "Test C preemergence", "assay_type": "in vivo, Amaranthus retroflexus", "settings": "preemergence", "in_short": "as §1"}, "pigweed [7]": {"system": "pigweed", "experiment": "Test C postemergence", "assay_type": "in vivo, Amaranthus retroflexus", "settings": "postemergence", "in_short": "as §1"}, "ragweed": {"system": "ragweed", "experiment": "Test C postemergence", "assay_type": "in vivo, Ambrosia elation", "settings": "postemergence", "in_short": "as §1"}, "[8]": {"settings": "31 g ai/ha, visual rating, scale 0 to 100 (0 no effect, 100 complete control), 13 to 15 days"}, "[9]": {"settings": "62 g ai/ha, scale 0 to 100 (0 no effect, 100 complete control), 13 to 15 days"}, "[10]": {"settings": "125 g ai/ha, 13 to 15 days, scale 0 to 100, 0 = no effect, 100 = complete control"}, "[11]": {"settings": "250 g ai/ha, scale 0 to 100, 0 is no effect, 100 is complete control"}, "[12]": {"settings": "125 g ai/ha, visual injury approx. 10 days after treatment"}, "[13]": {"settings": "500 g ai/ha, visual injury after approx. 10 days, 0 to 100 scale (0 no effect, 100 complete control)"}, "[14]": {"settings": "Postemergence, 31 g ai/ha, visually evaluated after 13 to 15 days"}, "[15]": {"settings": "postemergence, 62 g ai/ha, scale 0 to 100"}, "[16]": {"settings": "postemergence, 250 g ai/ha, scale 0 to 100 (0 no effect, 100 complete control)"}, "[17]": {"settings": "postemergence, 125 g ai/ha, scale 0 to 100, 0 no effect, 100 complete control"}, "[18]": {"settings": "250 g ai/ha, scale 0 to 100 (0 no effect, 100 complete control)"}, "[19]": {"settings": "125 g ai/ha, scale 0 to 100, 0 no effect, 100 complete control"}},
  "data": [
    {"smiles": "CCCNC(=O)c1cc(OCC)n(Cc2ccnc(C(F)(F)F)c2)n1", "note": "[Compound 187]", "values": [
      {"measurement": "Barnyardgrass plant response rating", "setting": "barnyardgrass; [8]", "value": 95},
      {"measurement": "Barnyardgrass plant response rating", "setting": "barnyardgrass; [9]", "value": 100},
      {"measurement": "Plant response rating, Barnyardgrass", "setting": "barnyardgrass; [10]", "value": 100},
      {"measurement": "Barnyardgrass plant response rating", "setting": "barnyardgrass; [11]", "value": 100},
      {"measurement": "Morningglory plant response rating (0 to 100 scale)", "setting": "morningglory [1]; [12]", "value": 100},
      {"measurement": "Morningglory plant response rating", "setting": "morningglory [1]; [13]", "value": 100},
      {"measurement": "Blackgrass plant response rating", "setting": "blackgrass [2]; [8]", "value": 90},
      {"measurement": "Blackgrass plant response rating", "setting": "blackgrass [2]; [9]", "value": 90},
      {"measurement": "Plant response rating, Blackgrass", "setting": "blackgrass [2]; [10]", "value": 90},
      {"measurement": "Blackgrass plant response rating", "setting": "blackgrass [2]; [11]", "value": 95},
      {"measurement": "Ryegrass, Italian plant response rating", "setting": "ryegrass, Italian; [8]", "value": 50},
      {"measurement": "Ryegrass, Italian plant response rating", "setting": "ryegrass, Italian; [9]", "value": 80},
      {"measurement": "Plant response rating, Ryegrass, Italian", "setting": "ryegrass, Italian; [10]", "value": 90},
      {"measurement": "Ryegrass, Italian plant response rating", "setting": "ryegrass, Italian; [11]", "value": 90},
      {"measurement": "Morningglory plant response rating", "setting": "morningglory [3]; [8]", "value": 85},
      {"measurement": "Morningglory plant response rating", "setting": "morningglory [3]; [9]", "value": 100},
      {"measurement": "Plant response rating, Morningglory", "setting": "morningglory [3]; [10]", "value": 100},
      {"measurement": "Morningglory plant response rating", "setting": "morningglory [3]; [11]", "value": 100},
      {"measurement": "Plant response rating (scale of 0 to 100 where 0 is no effect and 100 is complete control), Blackgrass", "setting": "blackgrass [4]; [14]", "value": 10},
      {"measurement": "Blackgrass plant response rating", "setting": "blackgrass [4]; [15]", "value": 5},
      {"measurement": "Plant response rating, Blackgrass", "setting": "blackgrass [4]; [16]", "value": 80},
      {"measurement": "Plant response rating, Blackgrass", "setting": "blackgrass [4]; [17]", "value": 30},
      {"measurement": "Plant response rating (scale of 0 to 100 where 0 is no effect and 100 is complete control), Morningglory", "setting": "morningglory [5]; [14]", "value": 70},
      {"measurement": "Morningglory plant response rating", "setting": "morningglory [5]; [15]", "value": 85},
      {"measurement": "Plant response rating, Morningglory", "setting": "morningglory [5]; [16]", "value": 98},
      {"measurement": "Plant response rating, Morningglory", "setting": "morningglory [5]; [17]", "value": 80},
      {"measurement": "Corn plant response rating (0 to 100 scale)", "setting": "corn; [12]", "value": 40},
      {"measurement": "Corn plant response rating", "setting": "corn; [13]", "value": 90},
      {"measurement": "Johnsongrass plant response rating", "setting": "johnsongrass; [8]", "value": 75},
      {"measurement": "Johnsongrass plant response rating", "setting": "johnsongrass; [9]", "value": 98},
      {"measurement": "Plant response rating, Johnsongrass", "setting": "johnsongrass; [10]", "value": 100},
      {"measurement": "Johnsongrass plant response rating", "setting": "johnsongrass; [11]", "value": 100},
      {"measurement": "Wheat plant response rating (0 to 100 scale)", "setting": "wheat; [12]", "value": 80},
      {"measurement": "Wheat plant response rating", "setting": "wheat; [13]", "value": 100},
      {"measurement": "Pigweed plant response rating", "setting": "pigweed [6]; [8]", "value": 70},
      {"measurement": "Pigweed plant response rating", "setting": "pigweed [6]; [9]", "value": 100},
      {"measurement": "Plant response rating, Pigweed", "setting": "pigweed [6]; [10]", "value": 100},
      {"measurement": "Pigweed plant response rating", "setting": "pigweed [6]; [11]", "value": 100},
      {"measurement": "Pigweed plant response rating", "setting": "pigweed [7]; 62 g ai/ha, scale 0 to 100", "value": 50},
      {"measurement": "Plant response rating, Pigweed", "setting": "pigweed [7]; [18]", "value": 75},
      {"measurement": "Plant response rating, Pigweed", "setting": "pigweed [7]; [19]", "value": 60},
      {"measurement": "Plant response rating, Ragweed", "setting": "ragweed; [18]", "value": 85},
      {"measurement": "Plant response rating, Ragweed", "setting": "ragweed; [19]", "value": 50}
    ]}
  ]
}
